Results on 32 molecules are retold here after patent publication US11584714B2 (priority 2018, dated 2023).

One experiment deals with human α-thrombin (Homo sapiens (Human), UniProt P00734). Briefly: Enzymatic assay for thrombin (Boc-VPR-AMC substrate). Format: biochemical.
The target of another experiment is MASP-2 (CCP1-CCP2-SP) (Homo sapiens (Human), UniProt O00187). Briefly: biochemical. The experiment is classed as biochemical.
[1] abbreviates: MASP-2 inhibition versus thrombin.
Where [2] appears, read: selectivity for MASP-2 inhibition versus thrombin.

SMILES strings stand for the structures. Where a name gives a salt, the structure may show the parent alone. Read-outs that look alike come from different tables or passages of the source.

Chain of MASP-2 (CCP1-CCP2-SP) (O00187 445-686): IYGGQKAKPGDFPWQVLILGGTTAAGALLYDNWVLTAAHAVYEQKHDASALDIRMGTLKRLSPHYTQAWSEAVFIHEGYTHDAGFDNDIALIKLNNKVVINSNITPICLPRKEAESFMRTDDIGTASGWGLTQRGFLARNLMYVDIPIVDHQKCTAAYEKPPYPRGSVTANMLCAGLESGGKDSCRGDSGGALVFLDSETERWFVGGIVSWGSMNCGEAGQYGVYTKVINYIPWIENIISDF

For `N=C(N)c1ccc(CNC(=O)[C@@H]2CCN2C(=O)[C@H](O)C2CCCCC2)cc1` [compound 1020], the Ki is less than 0.5 µM on human α-thrombin (read-out: Thrombin Ki) and less than 500 nM at MASP-2 (CCP1-CCP2-SP) (read-out: MASP-2 Ki). Moreover, at MASP-2 (CCP1-CCP2-SP) (setting [1]), the “MASP-2 vs. thrombin selectivity” value is listed as “−− (less than 1.0-fold)”.
In the case of `N=C(N)c1ccc(CNC(=O)[C@@H]2CCCN2C(=O)[C@H](N)C2CCCCC2)cc1` [compound 1027], the Ki on human α-thrombin (read-out: Thrombin Ki) is less than 0.5 µM; at MASP-2 (CCP1-CCP2-SP) (read-out: MASP-2 Ki) it was less than 500 nM. Further, on MASP-2 (CCP1-CCP2-SP) (setting [1]), the “MASP-2 vs. thrombin selectivity” value was “−− (less than 1.0-fold)”.
The matching figures for `N=C(N)c1ccc(CNC(=O)[C@@H]2CCN2C(=O)[C@H](N)CCc2ccccc2)cc1` [compound 1038]: less than 0.5 µM, less than 500 nM and “* (1.0 to 5.0-fold)”.
In the same order, the values of `C[C@H](NC(=O)[C@H](N)CCc1ccccc1F)C(=O)NCc1ccc(C(=N)N)cc1` [compound 1049] are less than 0.5 µM, less than 500 nM and “** (5.0 to 25-fold)”.
In the same order, the values of `N=C(N)c1ccc(CNC(=O)[C@@H]2CCN2C(=O)[C@H](N)C2Cc3ccccc3C2)cc1` [compound 1058, (S)-1-((R)-2-Amino-2-(2,3-dihydro-1H-inden-2-yl)acetyl)-N-(4-carbamimidoylbenzyl)azetidine-2-carboxamide] are less than 0.5 µM, less than 500 nM and “−− (less than 1.0-fold)”.
With `COc1ccc(CC[C@@H](N)C(=O)N[C@@H](C)C(=O)NCc2ccc(C(=N)N)cc2)cc1` [compound 1076], the inhibitory constant (Ki) on human α-thrombin (read-out: Thrombin Ki) is less than 0.5 µM; on MASP-2 (CCP1-CCP2-SP) (read-out: MASP-2 Ki) it was less than 500 nM. Besides, the “MASP-2 vs. thrombin selectivity” value on MASP-2 (CCP1-CCP2-SP) (setting [1]) is given as “** (5.0 to 25-fold)”.
The matching figures for `C[C@H](NC(=O)[C@H](N)CCc1ccccc1Cl)C(=O)NCc1ccc(C(=N)N)cc1` [compound 1082]: less than 0.5 µM, less than 500 nM and “* (1.0 to 5.0-fold)”.
The matching figures for `C[C@H](NC(=O)[C@H](N)CCc1ccc(F)cc1F)C(=O)NCc1ccc(C(=N)N)cc1` [compound 1084]: less than 0.5 µM, less than 500 nM and “** (5.0 to 25-fold)”.
As for `C[C@H](NC(=O)[C@H](N)CCc1ccc(F)c(F)c1)C(=O)NCc1ccc(C(=N)N)cc1` [compound 1085], the results for the Ki at human α-thrombin (read-out: Thrombin Ki) and at MASP-2 (CCP1-CCP2-SP) (read-out: MASP-2 Ki) were less than 0.5 µM and less than 500 nM, respectively. Besides, on MASP-2 (CCP1-CCP2-SP) (setting [1]), the “MASP-2 vs. thrombin selectivity” value was “** (5.0 to 25-fold)”.
The matching figures for `C[C@H](NC(=O)[C@H](N)CCc1cc(F)ccc1F)C(=O)NCc1ccc(C(=N)N)cc1` [compound 1086]: less than 0.5 µM, less than 500 nM and “** (5.0 to 25-fold)”.
In the same order, the values of `C[C@H](NC(=O)[C@H](N)CCc1cc(F)cc(F)c1)C(=O)NCc1ccc(C(=N)N)cc1` [compound 1087] are less than 0.5 µM, less than 500 nM and “** (5.0 to 25-fold)”.
The matching figures for `C[C@H](NC(=O)[C@H](N)Cc1ccc2ccccc2c1)C(=O)NCc1ccc(C(=N)N)cc1` [compound 1093]: less than 0.5 µM, less than 500 nM and “−− (less than 1.0-fold)”.
For the molecule `C[C@@H](C(=O)NCc1ccc(C(=N)N)cc1)N(C)C(=O)[C@H](NCC(=O)O)C1CCCCC1` [compound 1107], the Ki on human α-thrombin (read-out: Thrombin Ki) was less than 0.5 µM; at MASP-2 (CCP1-CCP2-SP) (read-out: MASP-2 Ki), less than 500 nM. Also, at MASP-2 (CCP1-CCP2-SP) (setting [1]), the “MASP-2 vs. thrombin selectivity” value is listed as “−− (less than 1.0-fold)”.
With `C[C@H](NC(=O)[C@@H](CCc1ccccc1)NCC(=O)O)C(=O)NCc1ccc(C(=N)N)cc1` [compound 1110], the Ki on human α-thrombin (read-out: Thrombin Ki) was less than 0.5 µM; on MASP-2 (CCP1-CCP2-SP) (read-out: MASP-2 Ki), less than 500 nM. For the same molecule, at MASP-2 (CCP1-CCP2-SP) (setting [1]), the “MASP-2 vs. thrombin selectivity” value is given as “* (1.0 to 5.0-fold)”.
In the same order, the values of `COc1ccc(CC[C@@H](N)C(=O)N[C@@H](C)C(=O)NCc2ccc(C(=N)N)cc2)c(OC)c1` [compound 1111] are less than 0.5 µM, less than 500 nM and “* (1.0 to 5.0-fold)”.
Consider `COc1cc(CC[C@@H](N)C(=O)N[C@@H](C)C(=O)NCc2ccc(C(=N)N)cc2)cc(OC)c1` [compound 1112], for which the figures for the Ki on human α-thrombin (read-out: Thrombin Ki) and on MASP-2 (CCP1-CCP2-SP) (read-out: MASP-2 Ki) were less than 0.5 µM and less than 500 nM, respectively. On MASP-2 (CCP1-CCP2-SP) (setting [1]), the “MASP-2 vs. thrombin selectivity” value is “** (5.0 to 25-fold)”.
In the same order, the values of `C[C@H](NC(=O)[C@H](N)CCc1cccc(C(F)(F)F)c1)C(=O)NCc1ccc(C(=N)N)cc1` [compound 1120] are less than 0.5 µM, less than 500 nM and “** (5.0 to 25-fold)”.
The matching figures for `C[C@H](NC(=O)[C@@H](CCc1ccccc1)NC1CCCC1)C(=O)NCc1ccc(C(=N)N)cc1` [compound 1122]: less than 0.5 µM, less than 500 nM and “−− (less than 1.0-fold)”.
In the same order, the values of `N=C(N)c1ccc(CNC(=O)[C@@H]2CCN2C(=O)[C@@H](CCc2ccccc2)NCC(=O)O)cc1` [compound 1124] are less than 0.5 µM, less than 500 nM and “−− (less than 1.0-fold)”.
Turning to `C[C@H](NC(=O)[C@@H](CCc1ccccc1)NCC(C)(C)C)C(=O)NCc1ccc(C(=N)N)cc1` [compound 1126], the Ki on human α-thrombin (read-out: Thrombin Ki) was less than 0.5 µM; at MASP-2 (CCP1-CCP2-SP) (read-out: MASP-2 Ki), less than 500 nM. Also, the “MASP-2 vs. thrombin selectivity” value at MASP-2 (CCP1-CCP2-SP) (setting [1]) is recorded as “−− (less than 1.0-fold)”.
As for `C[C@H](NC(=O)[C@@H](CCc1ccccc1)NC1CCCCC1)C(=O)NCc1ccc(C(=N)N)cc1` [compound 1130, (R)—N—((S)-1-((4-Carbamimidoylbenzyl)amino)-1-oxopropan-2-yl)-2-(cyclohexylamino)-4-phenylbutanamide Dihydrochloride], the Ki at human α-thrombin (read-out: Thrombin Ki) was less than 0.5 µM; at MASP-2 (CCP1-CCP2-SP) (read-out: MASP-2 Ki), less than 500 nM. For the same molecule, the “MASP-2 vs. thrombin selectivity” value on MASP-2 (CCP1-CCP2-SP) (setting [1]) was “−− (less than 1.0-fold)”.
The matching figures for `C[C@H](NC(=O)[C@@H](CCc1ccccc1)NCc1ccc(O)cc1)C(=O)NCc1ccc(C(=N)N)cc1` [compound 1140, (R)—N—((S)-1-((4-Carbamimidoylbenzyl)amino)-1-oxopropan-2-yl)-2-((4-hydroxybenzyl)amino)-4-phenylbutanamide Dihydrochloride]: less than 0.5 µM, less than 500 nM and “−− (less than 1.0-fold)”.
In the same order, the values of `COC(=O)COc1ccc(CN[C@H](CCc2ccccc2)C(=O)N[C@@H](C)C(=O)NCc2ccc(C(=N)N)cc2)cc1` [compound 1151] are less than 0.5 µM, less than 500 nM and “−− (less than 1.0-fold)”.
As for `C[C@H](NC(=O)[C@@H](CCc1ccccc1)NCc1ccc(N2CCN(C)CC2)cc1)C(=O)NCc1ccc(C(=N)N)cc1` [compound 1152], the Ki was less than 0.5 µM at human α-thrombin (read-out: Thrombin Ki) and less than 500 nM on MASP-2 (CCP1-CCP2-SP) (read-out: MASP-2 Ki). In addition, the “MASP-2 vs. thrombin selectivity” value at MASP-2 (CCP1-CCP2-SP) (setting [1]) was “* (1.0 to 5.0-fold)”.
With `C[C@H](NC(=O)[C@@H](CCc1ccccc1)NCc1ccccc1N1CCN(C)CC1)C(=O)NCc1ccc(C(=N)N)cc1` [compound 1232, (R)—N—((S)-1-((4-Carbamimidoylbenzyl)amino)-1-oxopropan-2-yl)-2-((2-(4-methylpiperazin-1-yl)benzyl)amino)-4-phenylbutanamide], the Ki at human α-thrombin (read-out: Thrombin Ki) was less than 0.5 µM; on MASP-2 (CCP1-CCP2-SP), 500 to 2500 nM. The “MASP-2 vs. thrombin selectivity” value on MASP-2 (CCP1-CCP2-SP) (setting [2]) is recorded as “−− (<1.0-fold)”.
For `C[C@H](NC(=O)[C@H](N)CCc1ccccc1)C(=O)NCc1cc(Cl)ccc1OCC(=O)NCCCO` [compound 1237, (R)-2-amino-N—((S)-1-((5-chloro-2-(2-((3-hydroxypropyl)amino)-2-oxoethoxy)benzyl)amino)-1-oxopropan-2-yl)-4-phenylbutanamide], the Ki at human α-thrombin (Thrombin Ki (μM)) is 0.5 to 2.5 µM; on MASP-2 (CCP1-CCP2-SP), 10000 to 25000 nM. For the same molecule, the “MASP-2 vs. thrombin selectivity” value at MASP-2 (CCP1-CCP2-SP) (setting [2]) is listed as “−− (<1.0-fold)”.
As for `Cc1cc(N)ncc1CNC(=O)[C@H](C)NC(=O)[C@H](N)CCc1ccccc1` [compound 1243, (R)-2-Amino-N—((S)-1-(((6-amino-4-methylpyridin-3-yl)methyl)amino)-1-oxopropan-2-yl)-4-phenylbutanamide], the Ki on human α-thrombin (read-out: Thrombin Ki) is greater than 25 µM; at MASP-2 (CCP1-CCP2-SP), 10000 to 25000 nM.
`Cc1cc(CNC(=O)[C@H](C)NC(=O)[C@H](N)CCc2ccccc2)cnc1N` [compound 1244, (R)-2-Amino-N—((S)-1-(((6-amino-5-methylpyridin-3-yl)methyl)amino)-1-oxopropan-2-yl)-4-phenylbutanamide]: the inhibition constant (Ki) on human α-thrombin (read-out: Thrombin Ki) was greater than 25 µM; at MASP-2 (CCP1-CCP2-SP), 500 to 2500 nM. In addition, the “MASP-2 vs. thrombin selectivity” value at MASP-2 (CCP1-CCP2-SP) (setting [2]) is “** (≥5.0 to <25-fold)”.
Consider `C[C@H](NC(=O)[C@H](N)CCc1ccccc1)C(=O)NCc1cc(Cl)ccc1[N+](=O)[O-]` [compound 1246, (R)-2-Amino-N—((S)-1-((5-chloro-2-nitrobenzyl)amino)-1-oxopropan-2-yl)-4-phenylbutanamide], for which the Ki on human α-thrombin (Thrombin Ki (μM)) lay within 10 to 25 µM; at MASP-2 (CCP1-CCP2-SP), 10000 to 25000 nM. In addition, the “MASP-2 vs. thrombin selectivity” value on MASP-2 (CCP1-CCP2-SP) (setting [2]) is “* (≥1.0 to <5.0-fold)”.
In the case of `COc1cc(C(=N)N)ccc1CNC(=O)[C@H](C)NC(=O)[C@H](N)CCc1ccccc1` [compound 1251, (R)-2-amino-N—((S)-1-((4-carbamimidoyl-2-methoxybenzyl)amino)-1-oxopropan-2-yl)-4-phenylbutanamide], the values for the Ki on human α-thrombin (read-out: Thrombin Ki) and on MASP-2 (CCP1-CCP2-SP) were less than 0.5 µM and 500 to 2500 nM, respectively. Further, the “MASP-2 vs. thrombin selectivity” value on MASP-2 (CCP1-CCP2-SP) (setting [2]) is “−− (<1.0-fold)”.
Turning to `Cc1ccc([C@H]2CN[C@@H](C(=O)N[C@@H](C)C(=O)NCc3ccc(C(=N)N)cc3)C2)cc1` [compound 1252, (2R,4S)—N—((S)-1-((4-Carbamimidoylbenzyl)amino)-1-oxopropan-2-yl)-4-(p-tolyl)pyrrolidine-2-carboxamide], the Ki on human α-thrombin (Thrombin Ki (μM)) is 2.5 to 10 µM; at MASP-2 (CCP1-CCP2-SP) (read-out: MASP-2 Ki), less than 500 nM. The “MASP-2 vs. thrombin selectivity” value on MASP-2 (CCP1-CCP2-SP) (setting [2]) is given as “*** (≥25 to <100-fold)”.
Take `N=C(N)c1ccc(CNC(=O)Cn2c(=O)n(Cc3ccccc3)c(=O)c3ccc(C(=O)NC4CCCCC4)cc32)cc1` [compound 2021, 3-Benzyl-1-(2-((4-carbamimidoylbenzyl)amino)-2-oxoethyl)-N-cyclohexyl-2,4-dioxo-1,2,3,4-tetrahydroquinazoline-7-carboxamide]: the Ki at human α-thrombin (Zn/EDTA condition not given, read-out: Thrombin Ki) is greater than 25 µM.
